31 compounds from US10722495B2, “Cyanoindazole compounds and uses thereof” (Incyte Corporation, priority 2017, dated 2020) can be followed below.

Sequence of HPK1 (Q92918 1-346): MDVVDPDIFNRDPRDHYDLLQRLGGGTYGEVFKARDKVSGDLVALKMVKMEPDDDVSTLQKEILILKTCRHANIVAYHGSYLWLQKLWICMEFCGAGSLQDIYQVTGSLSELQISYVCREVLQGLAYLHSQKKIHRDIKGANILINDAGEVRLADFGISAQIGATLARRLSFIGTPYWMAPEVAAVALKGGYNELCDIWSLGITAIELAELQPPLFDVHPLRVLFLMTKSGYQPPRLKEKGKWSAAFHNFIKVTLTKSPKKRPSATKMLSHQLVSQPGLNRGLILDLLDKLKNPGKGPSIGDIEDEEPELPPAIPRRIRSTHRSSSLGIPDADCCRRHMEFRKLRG

The assay has as its target HPK1 (Homo sapiens (Human), UniProt Q92918). Put plainly: HPK1 Kinase Binding Assay. The conditions noted are these: active HPK1 (SignalChem M23-11G), tracer 222, LanthaScreen Eu-Anti GST antibody, one hour incubation at 25° C. The method, then: Example A. HPK1 Kinase Binding Assay
A stock solution of 1 mM test compound was prepared in DMSO. The compound plate was prepared by 3-fold and 11-point serial dilutions. 0.1 μL of the compound in DMSO was transferred from the compound plate to the white 384 well polystyrene plates. The assay buffer contained 50 mM HEPES, pH 7.5, 0.01% Tween-20, 5 mM MgCl2, 0.01% BSA, and 5 mM DTT. 5 μl of 4 nM active HPK1 (SignalChem M23-11G) prepared in the buffer was added to the plate. The enzyme concentration given was based on the given stock concentration reported by the vender. 5 μl of 18 nM tracer 222 (ThermoFisher PV6121) and 4 nM LanthaScreen Eu-Anti GST antibody (ThermoFisher PV5595) were added. After one hour incubation at 25° C., the plates were read on a PHERAstar FS plate reader (BMG Labtech). Ki values were determined.
On the technique in general: TR-FRET usually uses a lanthanide donor and a delayed reading to cut background.
Turning to `CNCc1cc(C)c(-c2cc3c(-c4ccc(C5CCOCC5)nc4)n[nH]c3cc2C#N)c(F)c1` [Example 32, 5-(2-Fluoro-6-methyl-4-((methylamino)methyl)phenyl)-3-(6-(tetrahydro-2H-pyran-4-yl)pyridin-3-yl)-1H-indazole-6-carbonitrile], the Ki is ≤ 100 nM. With `CNCc1cc(C)c(-c2cc3c(-c4cnn(CC(F)(F)F)c4)n[nH]c3cc2C#N)c(F)c1` [Example 3, 5-(2-Fluoro-6-methyl-4-((methylamino)methyl)phenyl)-3-(1-(2,2,2-trifluoroethyl)-1H-pyrazol-4-yl)-1H-indazole-6-carbonitrile] the figure was ≤ 100 nM; with `CNCc1cc(C)c(-c2cc3c(-c4ccc(C5(C#N)CC5)cc4)n[nH]c3cc2C#N)c(F)c1` [Example 20, 3-(4-(1-Cyanocyclopropyl)phenyl)-5-(2-fluoro-6-methyl-4-((methylamino)methyl)phenyl)-1H-indazole-6-carbonitrile], ≤ 100 nM. With `CNCc1cc(C)c(-c2cc3c(-c4ccc(NC(C)=O)cc4)n[nH]c3cc2C#N)c(F)c1` [Example 10, N-(4-(6-Cyano-5-(2-fluoro-6-methyl-4-((methylamino)methyl)phenyl)-1H-indazol-3-yl)phenyl)acetamide] the figure was ≤ 100 nM; with `CCn1cc(-c2n[nH]c3cc(C#N)c(-c4c(C)cc(CNC)cc4F)cc23)cn1` [Example 1, 3-(1-Ethyl-1H-pyrazol-4-yl)-5-(2-fluoro-6-methyl-4-((methylamino)methyl)phenyl)-1H-indazole-6-carbonitrile], ≤ 100 nM. For the compound `CNCc1cc(C)c(-c2cc3c(-c4cccc(OC)c4)n[nH]c3cc2C#N)c(F)c1` [Example 12, 5-(2-Fluoro-6-methyl-4-((methylamino)methyl)phenyl)-3-(3-methoxyphenyl)-1H-indazole-6-carbonitrile], the Ki was ≤ 100 nM. Turning to `CNCc1cc(C)c(-c2cc3c(-c4ccc(C)nc4)n[nH]c3cc2C#N)c(F)c1` [Example 34, 5-(2-Fluoro-6-methyl-4-((methylamino)methyl)phenyl)-3-(6-methylpyridin-3-yl)-1H-indazole-6-carbonitrile], the Ki is ≤ 100 nM. In the case of `CNCc1cc(C)c(-c2cc3c(-c4cnsc4)n[nH]c3cc2C#N)c(F)c1` [Example 37, 5-(2-Fluoro-6-methyl-4-((methylamino)methyl)phenyl)-3-(isothiazol-4-yl)-1H-indazole-6-carbonitrile] it was ≤ 100 nM. With `CNCc1cc(C)c(-c2cc3c(-c4ccc(N5CC(CO)C5)nc4)n[nH]c3cc2C#N)c(F)c1` [Example 44, 5-(2-Fluoro-6-methyl-4-((methylamino)methyl)phenyl)-3-(6-(3-(hydroxymethyl)azetidin-1-yl)pyridin-3-yl)-1H-indazole-6-carbonitrile] the figure was ≤ 100 nM. Consider `CNCc1cc(C)c(-c2cc3c(-c4ccc(C(=O)NC)cc4)n[nH]c3cc2C#N)c(F)c1` [Example 8, 4-(6-Cyano-5-(2-fluoro-6-methyl-4-((methylamino)methyl)phenyl)-1H-indazol-3-yl)-N-methylbenzamide], for which the Ki was ≤ 100 nM. With `CNCc1cc(C)c(-c2cc3c(-c4cnn(C)c4)n[nH]c3cc2C#N)c(F)c1` [Example 26, 5-(2-Fluoro-6-methyl-4-((methylamino)methyl)phenyl)-3-(1-methyl-1H-pyrazol-4-yl)-1H-indazole-6-carbonitrile] the figure was ≤ 100 nM.

For `CNCc1cc(C)c(-c2cc3c(-c4ccc(N5CCC(O)CC5)nc4)n[nH]c3cc2C#N)c(F)c1` [Example 42, 5-(2-Fluoro-6-methyl-4-((methylamino)methyl)phenyl)-3-(6-(4-hydroxypiperidin-1-yl)pyridin-3-yl)-1H-indazole-6-carbonitrile], the Ki was ≤ 100 nM.

As to `CNCc1cc(C)c(-c2cc3c(-c4cnoc4)n[nH]c3cc2C#N)c(F)c1` [Example 38, 5-(2-Fluoro-6-methyl-4-((methylamino)methyl)phenyl)-3-(isoxazol-4-yl)-1H-indazole-6-carbonitrile], the Ki is ≤ 100 nM.

Consider `CNCc1cc(C)c(-c2cc3c(-c4ccc(C(=O)N(C)C)c(F)c4)n[nH]c3cc2C#N)c(F)c1` [Example 21, 4-(6-Cyano-5-(2-fluoro-6-methyl-4-((methylamino)methyl)phenyl)-1H-indazol-3-yl)-2-fluoro-N,N-dimethylbenzamide], for which the Ki is ≤ 100 nM.

Turning to `CNCc1cc(C)c(-c2cc3c(-c4ccc(S(C)(=O)=O)cc4Cl)n[nH]c3cc2C#N)c(F)c1` [Example 24, 3-(2-Chloro-4-(methylsulfonyl)phenyl)-5-(2-fluoro-6-methyl-4-((methylamino)methyl)phenyl)-1H-indazole-6-carbonitrile], the Ki is ≤ 100 nM. Regarding `CNCc1cc(C)c(-c2cc3c(-c4cccc(N5CC[C@H](N(C)C)C5)n4)n[nH]c3cc2C#N)c(F)c1` [Example 47, 3-(6-((S)-3-(Dimethylamino)pyrrolidin-1-yl)pyridin-2-yl)-5-(2-fluoro-6-methyl-4-((methylamino)methyl)phenyl)-1H-indazole-6-carbonitrile], the Ki is ≤ 100 nM.

On to `CNCc1cc(C)c(-c2cc3c(-c4ccc(OC)cc4)n[nH]c3cc2C#N)c(F)c1` [Example 13, 5-(2-Fluoro-6-methyl-4-((methylamino)methyl)phenyl)-3-(4-methoxyphenyl)-1H-indazole-6-carbonitrile], for which the Ki is ≤ 100 nM. In the case of `CNCc1cc(C)c(-c2cc3c(-c4ccc(N5CC[C@H](F)C5)nc4)n[nH]c3cc2C#N)c(F)c1` [Example 41, 5-(2-Fluoro-6-methyl-4-((methylamino)methyl)phenyl)-3-(6-((S)-3-fluoropyrrolidin-1-yl)pyridin-3-yl)-1H-indazole-6-carbonitrile] it was ≤ 100 nM; in that of `Cn1cc(-c2n[nH]c3cc(C#N)c(-c4ccccc4F)cc23)cn1` [Example 49, 5-(2-Fluorophenyl)-3-(1-methyl-1H-pyrazol-4-yl)-1H-indazole-6-carbonitrile], ≤ 100 nM; in that of `CNCc1cc(C)c(-c2cc3c(-c4ccc(N5CCN(C(C)=O)CC5)nc4)n[nH]c3cc2C#N)c(F)c1` [Example 30, 3-(6-(4-Acetylpiperazin-1-yl)pyridin-3-yl)-5-(2-fluoro-6-methyl-4-((methylamino)methyl)phenyl)-1H-indazole-6-carbonitrile], ≤ 100 nM. With `CNCc1cc(C)c(-c2cc3c(-c4ccc(C5CC5)cc4)n[nH]c3cc2C#N)c(F)c1` [Example 15, 3-(4-Cyclopropylphenyl)-5-(2-fluoro-6-methyl-4-((methylamino)methyl)phenyl)-1H-indazole-6-carbonitrile] the figure was ≤ 100 nM; with `CNCc1cc(C)c(-c2cc3c(-c4ccc(C(F)(F)F)cc4)n[nH]c3cc2C#N)c(F)c1` [Example 14, 5-(2-Fluoro-6-methyl-4-((methylamino)methyl)phenyl)-3-(4-(trifluoromethyl)phenyl)-1H-indazole-6-carbonitrile], ≤ 100 nM. In the case of `CNCc1cc(C)c(-c2cc3c(-c4ccc(S(=O)(=O)C(C)C)cc4)n[nH]c3cc2C#N)c(F)c1` [Example 25, 5-(2-Fluoro-6-methyl-4-((methylamino)methyl)phenyl)-3-(4-(isopropylsulfonyl)phenyl)-1H-indazole-6-carbonitrile], the Ki is ≤ 100 nM.

In the case of `CNCc1cc(C)c(-c2cc3c(-c4cnc(OC)nc4)n[nH]c3cc2C#N)c(F)c1` [Example 35, 5-(2-Fluoro-6-methyl-4-((methylamino)methyl)phenyl)-3-(2-methoxypyrimidin-5-yl)-1H-indazole-6-carbonitrile], the Ki was ≤ 100 nM. In the case of `CNCc1cc(C)c(-c2cc3c(-c4ccc(S(C)(=O)=O)c(F)c4)n[nH]c3cc2C#N)c(F)c1` [Example 23, 3-(3-Fluoro-4-(methylsulfonyl)phenyl)-5-(2-fluoro-6-methyl-4-((methylamino)methyl)phenyl)-1H-indazole-6-carbonitrile] it was ≤ 100 nM. In the case of `CNCc1cc(C)c(-c2cc3c(-c4ccc(S(C)(=O)=O)cc4)n[nH]c3cc2C#N)c(F)c1` [Example 18, 5-(2-Fluoro-6-methyl-4-((methylamino)methyl)phenyl)-3-(4-(methylsulfonyl)phenyl)-1H-indazole-6-carbonitrile] it was ≤ 100 nM; in that of `CNCc1cc(C)c(-c2cc3c(-c4cccc(N5CCN(C)CC5)n4)n[nH]c3cc2C#N)c(F)c1` [Example 46, 5-(2-Fluoro-6-methyl-4-((methylamino)methyl)phenyl)-3-(6-(4-methylpiperazin-1-yl)pyridin-2-yl)-1H-indazole-6-carbonitrile], ≤ 100 nM; in that of `Cc1cccc(F)c1-c1cc2c(-c3cnn(C)c3)n[nH]c2cc1C#N` [Example 51, 5-(2-Fluoro-6-methylphenyl)-3-(1-methyl-1H-pyrazol-4-yl)-1H-indazole-6-carbonitrile], ≤ 100 nM. In the case of `CNCc1cc(C)c(-c2cc3c(-c4ccnc(C)c4)n[nH]c3cc2C#N)c(F)c1` [Example 31, 5-(2-Fluoro-6-methyl-4-((methylamino)methyl)phenyl)-3-(2-methylpyridin-4-yl)-1H-indazole-6-carbonitrile] it was ≤ 100 nM; in that of `CNCc1cc(C)c(-c2cc3c(-c4cnco4)n[nH]c3cc2C#N)c(F)c1` [Example 36, 5-(2-Fluoro-6-methyl-4-((methylamino)methyl)phenyl)-3-(oxazol-5-yl)-1H-indazole-6-carbonitrile], ≤ 100 nM; in that of `CNCc1cc(C)c(-c2cc3c(-c4ccc(C(=O)NC)c(F)c4)n[nH]c3cc2C#N)c(F)c1` [Example 17, 4-(6-Cyano-5-(2-fluoro-6-methyl-4-((methylamino)methyl)phenyl)-1H-indazol-3-yl)-2-fluoro-N-methylbenzamide], ≤ 100 nM.

What is called Ki is a measure of affinity in units of concentration, obtained from inhibition or displacement.
